Consider two compounds from patent publication US9795566B2, “Imidazole compound and liposome containing same” (FUJIFILM Corporation, priority 2014, dated 2017).

This data set in a line: Stability of the compounds and of the liposomes (statement in words). Format: physicochemical. To be noted: compound itself.

As for `CCCCCCCCCCCCCCCCN(CCCCCCCCCCCCCCCC)CCOCCOC(=O)C(N)Cc1cnc[nH]1` (centres unmarked) [Example 1], the “stability of the compound” value is “very stable”. Under `CCCCCCCCCCCCCCCCN(CCCCCCCCCCCCCCCC)C(=O)COCCOCCOCCNC(=O)C(N)Cc1cnc[nH]1` (centres unmarked) [Example 3] stands “very stable”.
